Measured values published in patent US20240082125A1, “USE OF A SHORT CHAIN FATTY ACID AS ANTIDANDRUFF AGENT” (NANYANG TECHNOLOGICAL UNIVERSITY, priority 2020, published 2024).
Values joined by “and” are separate entries in the source; they are usually repeats but may differ in a detail not shown here. Equal values may be shown once.

Legend:
[1] = system: M. restricta ATCC MYA-4611; assay: M. restricta growth assay, total cell numbers by SYTO9 fluorescence; type: cell-based, Malassezia restricta; conditions: for M. restricta (log10 total cell counts): 50 mM, after 72 hours, SYTO9, starting density 1×10^7 cells/ml, replicates #1-#3; for growth of Malassezia restricta: 30 mM, MD medium pH 6, FIG. 1
Protocol: (§1) M. restricta ATCC MYA-4611, S. epidermidis ATCC 12228, and C. acnes ATCC 6919 were purchased from ATCC. M. restricta was routinely cultured in modified Dixon (MD) medium (pH 6), composed of 36 g of Malt extract (Sigma 70167), 20 g of Dessicated Oxbile (Sigma 70168), 6 g of Bacto™ Peptone (BD 211677), 1% (v/v) Tween 40 (Sigma P1504), 0.2% (v/v) Oleic Acid (Fluka 75096), and 0.2% (v/v) Glycerol (Promega H5433) in 1 liter of dH2O. C. acnes and S. epidermidis were cultured in modified brain heart infusion (MBHI) medium (pH 7), containing 37 g of BHI base (Accumedia 7116B), 0.4% (v/v) of Tween-40 (Sigma P1504), 0.2% (v/v) of Oleic acid (Fluka 75096), and 0.2% (v/v) of Glycerol (Promega H5433) in 1 liter of dH2O. M. restricta and S. epidermidis were routinely grown under aerobic conditions, shaken at 200 rpm, and C. acnes was grown under anaerobic conditions. All organisms were grown at 33° C. Wherever required, media was supplemented with: sodium acetate (CH3COOH, Sigma Ref. 32319), sodium propionate ([…], Sigma Ref. P1880), sodium butyrate (CH3(CH2)2COOH, Sigma Ref. 303410), valeric acid (CH3(CH2)3COOH, Fluka Ref. 75054). For valeric acid, the pH in modified cell media was neutralized with NaOH (Sodium hydroxide, Sigma 283060).
M. restricta cells from 1 ml of the culture were harvested by centrifugation at 10,000×g for 5 minutes at room temperature. Cells were washed once, pelleted, and re-suspended in 0.9% NaCl solution. Equal volumes of the above cell suspension and SYTO 9 working stock (3 ul SYTO 9 component of the Live/Dead BacLight bacterial viability kit, ThermoFisher Scientific, L7012, diluted in 1 ml of 0.9% NaCl solution) were mixed well, incubated in dark for 10 minutes, and fluorescent intensity unit was measured in a Tecan microplate reader with excitation/emission wavelengths of 485/530 nm. A standard for correlation of fluorescence units and concentration was prepared using a fluorimeter and hemocytometer under a light microscope. This standard curve was used to calculate the total cell numbers.
(§2) M. restricta cells stored as glycerol stocks (30% glycerol in MD medium) were revived by plating on MD agar plates and incubated for 2-3 days at 33° C. A pre-culture was made from the lawn of cells grown on the agar plate. Cells from % of the plate was scrapped off, homogenized after suspending in 70 ml of MD medium in a 250 ml baffled erlenmeyer flask and incubated for 24 hours at 33° C. at 200 rpm. For experiments, 10^7 cell/ml was inoculated in fresh MD medium with or without the short chain fatty acids. Growth was monitored by measuring the cell density with SYTO 9 for up to 24 hours or 96 hours. C. acnes and S. epidermidis were inoculated into MBHI medium at starting cell density of OD600 0.05 and 0.25, respectively. Bacterial growth was measured by plating the serially diluted cultures on Brain Heart Infusion agar plates at different time points and colonies were counted after 72 hours for C. acnes and 24 hours for S. epidermidis.
(§3) M. restricta ATCC MYA-4611, S. epidermidis ATCC 12228 and C. acnes ATCC 6919 were purchased from ATCC. M. restricta were routinely cultured in Modified Dixon (MD) medium (pH 6), composed of 36 g of Malt extract (Sigma 70167), 20 g of Dessicated Oxbile (Sigma 70168), 6 g of Bacto™ Peptone (BD 211677), 1% (v/v) Tween 40 (Sigma P1504), 0.2% (v/v) Oleic Acid (Fluka 75096), and 0.2% (v/v) Glycerol (Promega H5433) in 1 liter of dH2O. C. acnes and S. epidermidis were cultured in modified brain heart infusion (MBHI) medium (pH 7), containing 37 g of BHI base (Accumedia 7116B), 0.4% (v/v) of Tween-40 (Sigma P1504), 0.2% (v/v) of Oleic acid (Fluka 75096), and 0.2% (v/v) of Glycerol (Promega H5433) in 1 liter of dH2O. M. restricta and S. epidermidis were routinely grown under aerobic conditions, shaken at 200 rpm, and C. acnes was grown under anaerobic conditions. All organisms were grown at 33° C.

C. acnes ATCC 6919 = assay: C. acnes growth assay, colony forming units; type: cell-based, Cutibacterium acnes; conditions: for C. acnes (log10 CFUs/ml): 50 mM, after 72 hours, replicates #1-#3; for growth of C. acnes: 30 mM, MBHI medium pH 7, anaerobic, FIG. 2
Protocol: as §1, §2
(§4) Bacterial growth was quantified by plating the serially diluted cultures on Brain Heart Infusion agar plates at different time points and colonies were counted after 72 hours for C. acnes and 24 hours for Staphylococcus sp.
(§5) M. restricta ATCC MYA-4611, S. epidermidis ATCC 12228 and C. acnes ATCC 6919 were purchased from ATCC. M. restricta were routinely cultured in Modified Dixon (MD) medium (pH 6), composed of 36 g of Malt extract (Sigma 70167), 20 g of Dessicated Oxbile (Sigma 70168), 6 g of Bacto™ Peptone (BD 211677), 1% (v/v) Tween 40 (Sigma P1504), 0.2% (v/v) Oleic Acid (Fluka 75096), and 0.2% (v/v) Glycerol (Promega H5433) in 1 liter of dH2O. C. acnes and S. epidermidis were cultured in modified brain heart infusion (MBHI) medium (pH 7), containing 37 g of BHI base (Accumedia 7116B), 0.4% (v/v) of Tween-40 (Sigma P1504), 0.2% (v/v) of Oleic acid (Fluka 75096), and 0.2% (v/v) of Glycerol (Promega H5433) in 1 liter of dH2O. M. restricta and S. epidermidis were routinely grown under aerobic conditions, shaken at 200 rpm, and C. acnes was grown under anaerobic conditions. All organisms were grown at 33° C. Wherever required, media was supplemented with 50 mM of: sodium propionate ([…], Sigma Ref. P1880), sodium butyrate (CH3(CH2)2COOH, Sigma Ref. 303410), valeric acid (CH3(CH2)3COOH, Fluka Ref. 75054). For valeric acid, the pH in modified cell media was neutralized with NaOH (Sodium hydroxide, Sigma 283060).
(§6) M. restricta cells stored as glycerol stocks (30% glycerol in MD medium) were revived by plating on MD agar plates and incubated for 2-3 days at 33° C. A pre-culture was made from the lawn of cells grown on the agar plate.

[2] = system: S. epidermidis ATCC 12228; assay: S. epidermidis growth assay, colony forming units; type: cell-based, Staphylococcus epidermidis; conditions: for S. epidermidis (log10 CFUs/ml): 50 mM, after 24 hours, replicates #1-#3; for growth of S. epidermidis: 30 mM, MBHI medium pH 7, aerobic, FIG. 3
Protocol: as §1, §2, §4, §5, §6

[3] = system: M. restricta ATCC MYA-4611; assay: M. restricta cell viability by ATP estimation (BacTiterGlo); type: cell-based, Malassezia restricta; conditions: 50 mM, ATP in lysate of 24 hours grown cells, replicates #1-#3
Protocol: as §3, with “M. restricta and S. epidermidis were routinely grown under aerobic conditions, shaken at 200 rpm, and C. acnes was grown under anaerobic conditions. All organisms were grown at 33° C.” left out
M. restricta cells stored as glycerol stocks (30% glycerol in MD medium) were revived by plating on MD agar plates and incubated for 2-3 days at 33° C. […] Growth was monitored by measuring the cell density with SYTO 9 or by estimating the ATP concentration (see below) for up to 24 hours or 96 hours. […] Bacterial growth was measured by plating the serially diluted cultures on Brain Heart Infusion agar plates at different time points and colonies were counted after 72 hours for C. acnes and 24 hours for S. epidermidis.
Cellular ATP was measured using the BacTiterGlo Microbial cell viability (Promega) kit following manufacturers protocol. […]

Compound: CCCCCC(=O)O [Cpo, caproic acid]
- M. restricta (log10 total cell counts) [1]: 6.93 log10 total cell counts and 6.95 log10 total cell counts and 6.87 log10 total cell counts
- C. acnes (log10 CFUs/ml) (C. acnes ATCC 6919): 8.29 log10 CFUs/ml and 8.26 log10 CFUs/ml and 8.41 log10 CFUs/ml
- S. epidermidis (log10 CFUs/ml) [2]: 7.64 log10 CFUs/ml and 7.67 log10 CFUs/ml and 7.57 log10 CFUs/ml

Compound: CCCCCCCC(=O)O [Cpy, caprylic acid]
- M. restricta (log10 total cell counts) [1]: 6.98 log10 total cell counts and 6.91 log10 total cell counts and 6.84 log10 total cell counts
- C. acnes (log10 CFUs/ml) (C. acnes ATCC 6919): 0.00 log10 CFUs/ml
- S. epidermidis (log10 CFUs/ml) [2]: 3.34 log10 CFUs/ml and 3.03 log10 CFUs/ml and 3.00 log10 CFUs/ml

Compound: CCCCCC(=O)OCC [EH_Cpo, ethyl caproate]
- M. restricta (log10 total cell counts) [1]: 6.80 log10 total cell counts and 6.69 log10 total cell counts and 6.74 log10 total cell counts
- C. acnes (log10 CFUs/ml) (C. acnes ATCC 6919): 9.94 log10 CFUs/ml and 8.47 log10 CFUs/ml and 8.00 log10 CFUs/ml
- S. epidermidis (log10 CFUs/ml) [2]: 5.55 log10 CFUs/ml and 5.54 log10 CFUs/ml and 5.66 log10 CFUs/ml

Compound: CCCCCCCC(=O)OCC(O)CO (stereo not shown) [GM_Cpy, glyceryl mono caprylate]
- C. acnes (log10 CFUs/ml) (C. acnes ATCC 6919): 0.00 log10 CFUs/ml
- S. epidermidis (log10 CFUs/ml) [2]: 0.00 log10 CFUs/ml
- M. restricta (Relative luminescence units) [3]: 16700 Relative luminescence units and −1470 Relative luminescence units and −2030 Relative luminescence units

Compound: CCCC(=O)[O-].[Na+] [NaB, sodium butyrate]
- growth of Malassezia restricta [1]: completely inhibit
- M. restricta (log10 total cell counts) [1]: 6.94 log10 total cell counts and 6.88 log10 total cell counts (2×)
- growth of C. acnes (C. acnes ATCC 6919): do not affect
- C. acnes (log10 CFUs/ml) (C. acnes ATCC 6919): 8.26 log10 CFUs/ml and 8.10 log10 CFUs/ml and 8.34 log10 CFUs/ml
- growth of S. epidermidis [2]: do not affect
- S. epidermidis (log10 CFUs/ml) [2]: 9.15 log10 CFUs/ml and 8.87 log10 CFUs/ml and 8.90 log10 CFUs/ml

Compound: CCCCC(=O)[O-].[Na+] [NaV, sodium valerate]
- growth of Malassezia restricta [1]: completely inhibit
- M. restricta (log10 total cell counts) [1]: 6.86 log10 total cell counts and 6.92 log10 total cell counts and 6.93 log10 total cell counts
- growth of C. acnes (C. acnes ATCC 6919): do not affect
- C. acnes (log10 CFUs/ml) (C. acnes ATCC 6919): 8.90 log10 CFUs/ml and 8.03 log10 CFUs/ml and 8.00 log10 CFUs/ml
- growth of S. epidermidis [2]: do not affect
- S. epidermidis (log10 CFUs/ml) [2]: 8.90 log10 CFUs/ml and 9.29 log10 CFUs/ml and 9.08 log10 CFUs/ml

Compound: CCC(=O)[O-].CCC(=O)[O-].[Zn+2] [Zn_Pro, zinc propionate]
- C. acnes (log10 CFUs/ml) (C. acnes ATCC 6919): 0.00 log10 CFUs/ml
- S. epidermidis (log10 CFUs/ml) [2]: 5.00 log10 CFUs/ml and 5.05 log10 CFUs/ml and 0.00 log10 CFUs/ml
- M. restricta (Relative luminescence units) [3]: 12500 Relative luminescence units and 11900 Relative luminescence units and 10300 Relative luminescence units

Compound: CC(=O)[O-].[Na+] [acetate, sodium acetate]
- growth of Malassezia restricta [1]: No effect
